Source: ChEMBL document CHEMBL5154799, “Discovery of a Novel Stilbene Derivative as a Microtubule Targeting Agent Capable of Inducing Cell Ferroptosis” (J Med Chem, 2022)

What was measured:
Format in all cases: functional, cell-based
A2780 = experiment: Antiproliferative activity against human A2780 cells assessed as cell viability incubated for 48 hrs by MTT assay; details: A2780, 48 h
A549 = experiment: Antiproliferative activity against human A549 cells assessed as cell viability incubated for 48 hrs by MTT assay; details: A549, 48 h
HeLa = experiment: Antiproliferative activity against human HeLa cells assessed as cell viability incubated for 48 hrs by MTT assay
MCF7 = experiment: Antiproliferative activity against human MCF7 cells assessed as cell viability incubated for 48 hrs by MTT assay; details: MCF7, 48 h
HCT-8 = experiment: Antiproliferative activity against human HCT-8 cells assessed as cell viability incubated for 48 hrs by MTT assay; details: HCT-8, 48 h

SMILES	IC50 (A2780)	IC50 (A549)	IC50 (HeLa)	IC50 (MCF7)	IC50 (HCT-8)
COc1ccc(C(=O)c2cc(OC)c(OC)c(OC)c2)c(NC(=O)CN(C)C)c1	0.58 µM	0.59 µM	0.47 µM	0.79 µM	0.79 µM
COc1ccc(C(=O)c2ccc(OC)c3c2C=CC(C)(C)O3)c(NC(=O)CN(C)C)c1	3.99 µM	1.85 µM	3.62 µM	6.53 µM	5.66 µM
C=C(c1ccc2c(c1)C=CC(C)(C)O2)c1ccc(OC)cc1NC(=O)CN(C)C	0.51 µM	0.43 µM	0.64 µM	0.94 µM	0.69 µM
C=C(c1cc(OC)c(OC)c(OC)c1)c1ccc(OC)cc1NC(=O)CNC	0.14 µM	0.1 µM	0.14 µM	0.24 µM	0.19 µM
COc1ccc(/C=C/C(=O)c2ccc(OC)c3c2OC(C)(C)C=C3)cc1 [MILLEPACHINE]	3.09 µM	3.95 µM	6.03 µM	6.98 µM	5.02 µM
C=C(c1ccc(OC)cc1NC(=O)CO)c1ccc(OC)c2c1C=CC(C)(C)O2	0.28 µM	0.07 µM	0.1 µM	0.59 µM	0.47 µM
C=C(c1ccc(OC)cc1NC(=O)CN(C)C)c1ccc(OC)c2c1OC(C)(C)C=C2	0.42 µM	0.27 µM	0.9 µM	0.5 µM	0.69 µM
C=C(c1ccc(OC)cc1NC(=O)CNCC)c1ccc(OC)c2c1OC(C)(C)C=C2	1.03 µM	0.97 µM	1.09 µM	2.1 µM	1.38 µM
CNCC(=O)Nc1cc(OC)ccc1C(=O)c1ccc(OC)c2c1C=CC(C)(C)O2	1.59 µM	1.37 µM	2.17 µM	3.04 µM	3.46 µM
COc1ccc(C(C)c2cc(OC)c(OC)c(OC)c2)c(NC(=O)CO)c1O (stereo not given)	0.28 µM	0.18 µM	0.39 µM	0.79 µM	0.59 µM
C=C(c1cc(OC)c(OC)c(OC)c1)c1ccc(OC)c(O)c1NC(=O)COCC	1.23 µM	0.88 µM	0.69 µM	1.05 µM	0.91 µM
C=C(c1ccc(OC)cc1NC(=O)CNCC)c1ccc(OC)c2c1C=CC(C)(C)O2	2.01 µM	1.87 µM	2.59 µM	2.92 µM	3.05 µM
COc1ccc(C(=O)c2ccc(OC)c3c2C=CC(C)(C)O3)c(NC(=O)CBr)c1	2.15 µM	2.46 µM	3.68 µM	3.29 µM	4.36 µM
COc1ccc(C(=O)c2ccc(OC)c3c2OC(C)(C)C=C3)c(NC(=O)CN(C)C)c1	0.79 µM	0.89 µM	1.05 µM	2.68 µM	1.59 µM
C=C(c1ccc(OC)cc1NC(=O)CNC)c1ccc(OC)c2c1OC(C)(C)C=C2	0.21 µM	0.15 µM	0.31 µM	0.4 µM	0.32 µM
COc1ccc(C(=O)c2cc(OC)c(OC)c(OC)c2)c(NC(=O)CN)c1	0.19 µM	0.22 µM	0.13 µM	0.27 µM	0.33 µM
CNCC(=O)Nc1cc(OC)ccc1C(=O)c1ccc2c(c1)C=CC(C)(C)O2	0.85 µM	0.8 µM	0.97 µM	1.21 µM	1.01 µM
CCNCC(=O)Nc1cc(OC)ccc1C(=O)c1ccc(OC)c2c1OC(C)(C)C=C2	1.98 µM	1.05 µM	2.69 µM	5.2 µM	3.69 µM
C=C(c1ccc(OC)cc1NC(=O)CN)c1ccc(OC)c2c1OC(C)(C)C=C2	0.08 µM	0.05 µM	0.12 µM	0.22 µM	0.19 µM
C=C(c1ccc2c(c1)C=CC(C)(C)O2)c1ccc(OC)cc1NC(=O)CNCC	1.87 µM	1.18 µM	1.58 µM	3.37 µM	2.22 µM
